From patent US20120094958A1, “QUINOLINES AS INHIBITORS OF FARNESYL PYROPHOSPHATE SYNTHASE” (NOVARTIS AG, priority 2008, published 2012)
Structures can show the parent of a compound that is named as a salt.

These molecules were tested against T1, FPPS (Farnesyl pyrophosphate synthase) (Homo sapiens, UniProt P14324) (assay: FPPS Assay: LC-MS Method). Settings: GPP/IPP 5 μM each, reaction stopped after 10 minutes.
T1 sequence (P14324 1-353 isoform P14324-2): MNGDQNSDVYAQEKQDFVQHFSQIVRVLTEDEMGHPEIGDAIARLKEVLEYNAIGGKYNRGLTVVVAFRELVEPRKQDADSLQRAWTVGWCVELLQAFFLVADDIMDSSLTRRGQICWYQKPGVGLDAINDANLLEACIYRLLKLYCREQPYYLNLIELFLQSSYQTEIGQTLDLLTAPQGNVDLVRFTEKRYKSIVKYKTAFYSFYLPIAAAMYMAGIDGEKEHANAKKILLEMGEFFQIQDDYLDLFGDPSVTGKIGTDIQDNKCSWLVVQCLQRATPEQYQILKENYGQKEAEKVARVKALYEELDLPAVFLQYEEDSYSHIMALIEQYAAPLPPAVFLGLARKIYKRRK
Assay type: biochemical
Procedure: Recombinant human Farnesyl Pyrophosphate synthase (FPPS) was cloned, expressed and purified as previously described {J.-M. Rondeau et al., ChemMedChem 2006, 1, 267-271.} and stored as a 10 mg/mL stock solution in 25 mM Tris pH 7.4, 25 mM NaCl, 2 mM DTT (dithiothreitol). Geranyl pyrophosphate (GPP) was purchased from Anawa AG (Switzerland) and stored as a 1 mg/mL solution in 4 parts isopropanol:3 parts ammonia:1 part water. 1-[^3H]Isopentenyl pyrophosphate (IPP), 50 Ci/mmol; 1 Ci/mL, was purchased from Anawa AG and stored in ethanol:ammonia hydroxide 1:1 at −80 C. 1-[^3H] Farnesyl pyrophosphate triammonium salt, 100 Ci/mmol; 1 mCi/mL in 70% ethanol, 0.25 M ammonium bicarbonate was purchased from Anawa AG. Phospholipid-coated 384-well image FlashPlates™ were purchased from PerkinElmer. the assay buffer consisted of 20 mM HEPES pH7.4, 5 mM MgCl2 and 1 mM CaCl2.
Selected compounds are assayed in another FPPS based assay:
Into each well of a 384-well plate, 5 μL of compound in 20% DMSO/water is placed. 25 μL of GPP/IPP (5 μM each in assay buffer) is then added. The reaction is started with the addition of 10 μL of FPPS (diluted 1 to 10000 with assay buffer). After 10 minutes, the reaction is stopped by addition of 10 μL of 2 μM FSPP in 2% DMIPA/IPA. The reaction mixture is then extracted with 50 μL of n-pentanol using vortex mixing. After phase separation, 25 μL of the upper (n-pentanol) layer is transferred to a new 384-well plate and the pentanol is evaporated using a vacuum centrifuge. The dried residue is reconstituted in 50 μL of 0.1% DMIPA/water for analysis by the LC/MS/MS method.
LC/MS/MS analyses are performed on a Micromass Quattro Micro interfaced to an Agilent 1100 binary LC pump. Injection is performed by a Gilson 215/889 autosampler using an injection loop size of 2.5 μL. Chromatography is performed on a Waters 2.1×20 mm Xterra MS C18 5 μm guard column (P/N186000652) contained in a guard column holder (P/N 186000262) using 0.1% DMIPA/methanol as solvent A and 0.1% DMIPA/water as solvent B. The gradient is 5% A from 0.00 to 0.30 min, 50% A at 0.31 min, 80% A at 1.00 min, and 5% A from 1.01 to 2.00 min. The flow rate is 0.3 mL/min and the flow is diverted to waste from 0.00 to 0.50 min and again from 1.20 to 2.00 min.
The MRM transitions monitored are 381^−>79^− for FPP and 397^−>159^− for FSPP at a collision energy of 22 eV and a collision cell pressure of 2.1×10^−3 mbar of Ar. The dwell time per transition is 400 msec with a span of 0.4 Da. The interchannel delay and interscan delay are both 0.02 sec. Other mass spectrometric operating parameters are: capillary, 2.0 kV; cone, 35 V; extractor, 2.0 V, source temp., 100° C.; desolvation gas temp., 250° C.; desolvation gas flow, 650 L/hr; cone gas flow, 25 L/hr; multiplier, 650 V.
The total cycle time per sample is 2.5 minutes. Since the analysis is formatted for 384-well plates, a plate is analyzed in 16 hours. The chromatograms are processed using Quanlynx software, which divides the area of individual FPP peaks by the area of the FSPP peaks (internal standard). The resulting values are reported as the relative response for the corresponding sample well.

Row | IC50 [µM] | Molecule
1 | 0.266 | O=P(O)(O)c1ccc2cc(-c3cccs3)cc(-c3cccc4ccccc34)c2n1 [Example 17, (8-Naphthalen-1-yl-6-thiophen-2-yl-quinolin-2-yl)-phosphonic acid]
2 | 0.507 | O=P(O)(O)c1ccc2cc(I)cc(-c3cccc4ccccc34)c2n1 [Example 21, (6-Iodo-8-naphthalen-1-yl-quinolin-2-yl)-phosphonic acid]
3 | 0.205 | O=P(O)(O)c1ccc2cc(-c3ccsc3)cc(-c3cccc4ccccc34)c2n1 [Example 27c.ii]
4 | 0.9 | O=P(O)(O)c1ccc2cc(-c3ccco3)cc(-c3cccc4ccccc34)c2n1 [Example 27d.ii]
5 | 0.977 | O=P(O)(O)c1ccc2cc(-c3ccc4c(c3)OCO4)cc(-c3cccc4ccccc34)c2n1 [Example 27f.ii]
6 | 0.606 | O=P(O)(O)c1ccc2cc(-c3cccc(O)c3)cc(-c3cccc4ccccc34)c2n1 [Example 28, [6-(3-Hydroxy-phenyl)-8-naphthalen-1-yl-quinolin-2-yl]-phosphonic acid]

Continued, molecule first:

Row | Molecule | IC50 [µM]
7 | Nc1cc(-c2cccc3ccccc23)c2nc(C(=O)O)ccc2c1 [Example 31, 6-Amino-8-naphthalen-1-yl-quinoline-2-carboxylic acid] | 0.069
8 | O=C(O)c1ccc2cc(I)cc(-c3cccc4ccccc34)c2n1 [Example 32, 6-Iodo-8-naphthalen-1-yl-quinoline-2-carboxylic acid lithium salt] | 0.16

These molecules were tested against T2, Recombinant human Farnesyl Pyrophosphate synthase (FPPS) (Homo sapiens, UniProt P14324) (assay: FPPS enzyme assay, scintillation proximity (FlashPlate)). Settings: not given.
T2 construct: made in house
T2 sequence (P14324 1-353 isoform P14324-2): T1 sequence (P14324 1-353 isoform P14324-2)
Assay type: biochemical

Row | Molecule | IC50 [µM]
9 | O=C(O)c1ccc2cccc(-c3cccc4[nH]ccc34)c2n1 [Example 2.a.ii] | 6.5
10 | CCOP(=O)(Cc1ccc2cccc(-c3cccc4ccccc34)c2n1)OCC [Example 11.6, (8-Naphthalen-1-yl-quinolin-2-ylmethyl)-phosphonic acid diethyl ester] | > 100

Same assay, conditions: FlashPlate SPA; GPP 150 nM, [3H]-IPP 150 nM, FPPS 500 pM, 45 minutes at room temperature; highest concentration tested 100 μM; read-out: FPPS IC50

Row | IC50 [µM] | Molecule
11 | 14 | O=[N+]([O-])c1cc(-c2cccc3ccccc23)c2nc(NCP(=O)(O)O)ccc2c1 [Example 6, [(6-Nitro-8-naphthalen-1-yl-quinolin-2-ylamino)-methyl]-phosphonic acid]
12 | 21.5 | O=P(O)(O)CNc1ccc2cc(-c3cc[nH]c3)cc(-c3cccc4ccccc34)c2n1 [Example 9, {[8-Naphthalen-1-yl-6-(1H-pyrrol-3-yl)-quinolin-2-ylamino]-methyl}-phosphonic acid]
13 | 2.8 | O=P(O)(O)CNc1ccc2cc(-c3cccnc3)cc(-c3cccc4ccccc34)c2n1 [Example 10, [(8-Naphthalen-1-yl-6-pyridin-3-yl-quinolin-2-ylamino)-methyl]-phosphonic acid]
14 | 7.9 | O=P(O)(O)Cc1ccc2cccc(-c3cccc4ccccc34)c2n1 [Example 11, (8-Naphthalen-1-yl-quinolin-2-ylmethyl)-phosphonic acid]
15 | 0.14 | O=C(O)c1ccc2cc(-c3ccc[nH]3)cc(-c3cccc4ccccc34)c2n1 [Example 36, 8-Naphthalen-1-yl-6-pyrrol-2-yl-quinoline-2-carboxylic acid]
16 | 0.007 | O=P(O)(O)/C=C/c1ccc2cccc(-c3cccc4ccccc34)c2n1 [Example 40, [(E)-2-(8-Naphthalen-1-yl-quinolin-2-yl)-vinyl]-phosphonic acid]

Second part, the molecule before the results:

Row | Molecule | IC50 [µM]
17 | COC(=O)C(CNC(=O)c1ccc2cccc(-c3cccc4ccccc34)c2n1)NS(=O)(=O)NC(=O)OC(C)(C)C (racemic) [Example 13, rac. 2-[(tert-Butoxycarbonylamino-sulfonyl)-amino]-3-[(8-naphthalen-1-yl-quinoline-2-carbonyl)-amino]-propionic acid methyl ester] | 13.5
18 | COC(=O)C(CNC(=O)c1ccc2cccc(-c3cccc4ccccc34)c2n1)NS(N)(=O)=O (racemic) [Example 14, rac. 2-[(Amino-sulfonyl)-amino]-3-[(8-naphthalen-1-yl-quinoline-2-carbonyl)amino]-propionic acid methyl ester] | 39.7
19 | O=C(NCC1NS(=O)(=O)NC1=O)c1ccc2cccc(-c3cccc4ccccc34)c2n1 (racemic) [Example 15.a, rac. 8-Naphthalen-1-yl-quinoline-2-carboxylic acid (1,1,4-trioxo-1lambda*6*-[1,2,5]thiadiazolidin-3-ylmethyl)-amide] | > 100
20 | O=C(O)c1ccc2cccc(-c3cccc4ccccc34)c2n1 [Example 1, 8-Naphthalen-1-quinoline-2-carboxylic acid] | 0.52
21 | O=C(OCc1ccccc1)c1ccc2cccc(-c3cccc4cnccc34)c2n1 [Example 2.b.i] | > 10
22 | O=C(OCc1ccccc1)c1ccc2cccc(-c3cccc4ncccc34)c2n1 [Example 2.c.i] | > 10
23 | O=C(O)c1ccc2cccc(-c3cccc4ncccc34)c2n1 [Example 2.c.ii] | 2.7
24 | O=C(OCc1ccccc1)c1ccc2cccc(-c3cccc4c3CCCC4=O)c2n1 [Example 2.d.i] | > 10
25 | O=C(OCc1ccccc1)c1ccc2cccc(-c3cccc4[nH]c(=O)ccc34)c2n1 [Example 2.g.i] | 19.7
26 | O=C(O)c1ccc2cccc(-c3cccc4[nH]c(=O)ccc34)c2n1 [Example 2.g.ii] | > 100
27 | O=C(NCP(=O)(O)O)c1ccc2cccc(-c3cccc4ccccc34)c2n1 [Example 3, {[(8-Naphthalen-1-yl-quinoline-2-carbonyl)-amino]-methyl}-phosphonic acid] | 40.3
28 | O=P(O)(O)CNc1ccc2cccc(-c3cccc4ccccc34)c2n1 [Example 5, [(8-Naphthalen-1-yl-quinolin-2-ylamino)-methyl]-phosphonic acid] | 4.1
29 | CCOP(=O)(CNc1ccc2cc(-c3ccn([Si](C(C)C)(C(C)C)C(C)C)c3)cc(-c3cccc4ccccc34)c2n1)OCC [Example 9.1, {[8-Naphthalen-1-yl-6-(1-triisopropylsilanyl-1H-pyrrol-3-yl)-quinolin-2-ylamino]-methyl}-phosphonic acid diethyl ester] | > 100
30 | CCOP(=O)(CNc1ccc2cc(-c3cccnc3)cc(-c3cccc4ccccc34)c2n1)OCC [Example 10.1, [(8-Naphthalen-1-yl-6-pyridin-3-yl-quinolin-2-ylamino)-methyl]-phosphonic acid diethyl ester] | 2.8
31 | O=P(O)(O)CNCc1ccc2cccc(-c3cccc4ccccc34)c2n1 [Example 12, {[(8-Naphthalen-1-yl-quinolin-2-ylmethyl)-amino]-methyl}-phosphonic acid] | > 100
32 | O=P(O)(O)CCc1ccc2cccc(-c3cccc4ccccc34)c2n1 [Example 41, [2-(8-Naphthalen-1-yl-quinolin-2-yl)-ethyl]-phosphonic acid] | 2.3
33 | O=C(O)c1ccc2cc(Cl)cc(-c3cccc4ccccc34)c2n1 [Example 54, 6-Chloro-8-naphthalen-1-yl-quinoline-2-carboxylic acid] | 0.34
34 | rac. 2-[(amino-sulfonyl)-amino]-3-[(8-naphthalen-1-yl-quinoline-2-carbonyl)-amino]-propionic acid [Example 15.b] | 54.3
